Biological target: the enzyme urea (Canavalia ensiformis, UniProt P07374)
Assay: Effect of potential interfering substances on the pH response of the urea(bio)sensor
Assay type: biochemical
Text: Furthermore, the effect of potential interfering substances, such as glucose, acetone, citric acid and sodium acetate, was investigated, see Table 2.

Chain of the enzyme urea (P07374 whole entry, looked up): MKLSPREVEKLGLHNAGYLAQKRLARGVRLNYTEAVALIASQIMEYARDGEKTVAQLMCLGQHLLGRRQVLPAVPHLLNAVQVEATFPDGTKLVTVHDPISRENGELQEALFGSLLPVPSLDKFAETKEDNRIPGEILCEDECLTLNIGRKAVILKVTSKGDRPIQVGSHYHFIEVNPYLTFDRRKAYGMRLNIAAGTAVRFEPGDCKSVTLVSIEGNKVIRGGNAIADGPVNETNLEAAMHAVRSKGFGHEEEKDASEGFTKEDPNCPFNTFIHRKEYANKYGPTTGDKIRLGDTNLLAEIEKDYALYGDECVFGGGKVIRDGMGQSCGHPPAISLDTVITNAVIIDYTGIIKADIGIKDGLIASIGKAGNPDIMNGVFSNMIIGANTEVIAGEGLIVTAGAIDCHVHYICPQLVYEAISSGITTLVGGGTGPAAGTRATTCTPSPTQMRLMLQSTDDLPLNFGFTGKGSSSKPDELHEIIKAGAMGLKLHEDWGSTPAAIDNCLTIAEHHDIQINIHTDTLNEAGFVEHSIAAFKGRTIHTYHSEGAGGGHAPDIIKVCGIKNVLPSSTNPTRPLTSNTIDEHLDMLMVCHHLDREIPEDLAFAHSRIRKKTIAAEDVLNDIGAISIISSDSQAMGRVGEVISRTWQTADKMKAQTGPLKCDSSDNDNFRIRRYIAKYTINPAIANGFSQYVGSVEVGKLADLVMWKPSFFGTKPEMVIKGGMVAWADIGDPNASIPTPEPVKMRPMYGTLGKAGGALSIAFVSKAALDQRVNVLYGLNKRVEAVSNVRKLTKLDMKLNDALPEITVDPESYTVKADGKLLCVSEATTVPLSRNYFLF

Structure (SMILES): O=S(=O)([O-])[O-].[Cu+2] [Copper sulphate]
- Change in ΔpH (%) (substance 1 mM in sample solution, no stabiliser): −38%
- Change in ΔpH (%) (substance 1 mM, value in parentheses, stabiliser (for instance EDTA) injected together with the enzyme): 0%
- Change in ΔpH (%) (substance 2 mM in sample solution, no stabiliser): −65%
- Change in ΔpH (%) (substance 2 mM, value in parentheses, stabiliser (for instance EDTA) injected together with the enzyme): 0%

Structure (SMILES): CC(=O)[O-].[Na+] [Sodium acetate]
- Change in ΔpH (%) (substance 0.6 mM in sample solution, urea(bio)sensor, pH electrode): 0%
